# Measurements as given in patent US12691070B2, “Cationic lipids and preparation method thereof” (RiboX Therapeutics HK Limited, priority 2023, dated 2026).
# Assays:
# RAW 264.7 cells [1] = assay: In vitro expression of firefly-luciferase, RAW 264.7; format: cell-based; conditions: cirRNA (SEQ ID NO: 1) LNPs; firefly-luciferase luminescence; RAW 264.7 cells
# Method in brief: (§1)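 Both cell lines receive RNA-LNPs carrying firefly-luciferase RNA at 100 ng/mL. Lysis follows washing at 72 h post-transfection, and luciferase activity is then quantified on a luminometer using a commercial luciferase assay reagent.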
# Hep G2 cells [2] = assay: In vitro toxicity (CellTiter-Glo cell viability), Hep G2; format: cell-based; conditions: cirRNA (SEQ ID NO: 1) LNPs; Hep G2 cells;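 note: percent of untreated cells luminescence signal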
# Method in brief: (§2)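 Viability after a 72 h incubation with 1 μg/mL RNA-LNP formulations was assessed luminometrically using CellTiter-Glo.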
# [3] = LNP zeta potential (Zetasizer); format: physicochemical; conditions: LNP with cirRNA (SEQ ID NO: 1)
# Method in brief: (§3)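 Ribogreen fluorescence with and without Triton X-100 gave encapsulation as 100% − (intact/lysed) signal; DLS size, PDI and zeta potential measured on a Zetasizer. Particles: 50:10:38.5:1.5 lipid mix, luciferase circRNA or mRNA, lipid:nucleotide 15 or 6, microfluidic assembly at pH 4.5, PBS-dialyzed.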
# BALB/C mice = assay: In vivo expression, whole-body luminescence (IVIS); conditions: cirRNA (SEQ ID NO: 1) LNPs, BALB/C mice
# Procedure: 6-8 week old, female BALB/C mice were injected with 0.05 mg*kg-1 of RNA-LNPs encoding for firefly-luciferase by intravenous injection. At 6 hours post injection, animals were intraperitoneally injected with 15 mg/ml of Luciferin substrate and whole-body luminescence was determined by a bioluminescent in vivo imaging system (IVIS).
# RAW 264.7 cells [4] = assay: In vitro toxicity (CellTiter-Glo cell viability), RAW 264.7; format: cell-based; conditions: cirRNA (SEQ ID NO: 1) LNPs; RAW 264.7 cells;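 note: percent of untreated cells luminescence signal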
# Method in brief: as §2
# [5] = LNP size and polydispersity index (PDI) by dynamic light scattering; format: physicochemical; conditions: LNP with cirRNA (SEQ ID NO: 1); for Size: in nm (unit assumed)
# Method in brief: as §3
# [6] = RNA encapsulation efficacy by Quant-IT Ribogreen kit; format: physicochemical; conditions: LNP with cirRNA (SEQ ID NO: 1)
# Method in brief: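 Ribogreen read-out: encapsulation = 100% − (signal of intact RNA-LNPs / signal with Triton X-100). Particles: ionizable lipid:DSPC:Chol:DMG-PEG2000 50:10:38.5:1.5, ionizable lipid:ribonucleotide 15 or 6, final lipid 1.5–6 mM, PBS-dialyzed.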
# Hep G2 cells [7] = assay: In vitro expression of firefly-luciferase, Hep G2; format: cell-based; conditions: cirRNA (SEQ ID NO: 1) LNPs; firefly-luciferase luminescence; Hep G2 cells
# Method in brief: as §1
SMILES,Zeta (mV) [3] [mV],PDI [5],Size [5],Encapsulation Efficiency % [6] [%],In vitro Expression RAW (RAW 264.7 cells [1]),In vitro Viability HepG2 (Hep G2 cells [2]) [%],In vivo Expression (Whole Body) (BALB/C mice),In vitro Viability RAW (RAW 264.7 cells [4]) [%],In vitro Expression HepG2 (Hep G2 cells [7])
CCCCCCCCCC(=O)OCCCCCCCN(CCCCCCCCOC(=O)C(CCCCCC)CCCCCCCC)CCOC(=O)NCCCN(C)C (stereo not drawn) [Lipid 193],15.29,0.3634,66.71,94,1.70E+03,94,1.00E+06,3,5.28E+05
"CCCCC/C=C\C/C=C\CCCCCCCCN(CCCCCCCC/C=C\CCCCCCCC)CCOC(=O)NCCCN(CC)CC [Lipid 69, 2-(((Z)-octadec-9-en-1-yl)((9Z,12Z)-octadeca-9,12-dien-1-yl)amino)ethyl (3-(diethylamino)propyl)carbamate]",16.31,0.205,161.1,95,2.25E+02,86,2.17E+06,102,4.62E+04
CCCCCCCC/C=C\CCCCCCCCN(CCCCCCCCOC(=O)C(CCCCCC)CCCCCCCC)CCOC(=O)NCc1ncc[nH]1 (stereo not drawn) [Lipid 212],−3.175,0.1853,65.77,93,1.44E+05,99,4.68E+06,82,6.37E+04
"CCCCC/C=C\C/C=C\CCCCCCCCN(CCCCCCCC/C=C\CCCCCCCC)CCOC(=O)NCCN(C)C [Lipid 67, 2-(((Z)-octadec-9-en-1-yl)((9Z,12Z)-octadeca-9,12-dien-1-yl)amino)ethyl (2-(dimethylamino)ethyl)carbamate]",8.392,0.087,142.9,99,5.99E+02,120,6.00E+07,107,1.21E+05
"CCCCCCCCC(CCCCCC)C(=O)OCCCCCCCCN(CCCCCCCCOC(=O)C(CCCCCC)CCCCCCCC)CCOC(=O)NCc1ccc(NC(=O)OC(C)(C)C)cc1 (stereo not drawn) [Lipid 8, ((2-(((4-((tert-butoxycarbonyl)amino)benzyl)carbamoyl)oxy)ethyl)azanediyl)bis(octane-8,1-diyl) bis(2-hexyldecanoate)]",−20.4,0.162,80.1,84,6.90E+01,110,9.52E+04,105,2.33E+01
CCCCCCCCCCCOC(=O)CCCCCN(CCCCCCCC(=O)OC(CCCCCCCC)CCCCCCCC)CCOC(=O)NCCN1CCOCC1 [Lipid 161],−10.23,0.08727,58.97,75,6.74E+03,95,1.88E+07,81,4.62E+04
CCCCCCCCCCCOC(=O)CCCCCN(CCCCCC(=O)OCCCCCCCCCCC)CCOC(=O)NCCCN(C)C [Lipid 153],18.95,0.09308,71.11,89,2.44E+02,120,1.02E+05,104,1.95E+04

# Second part, led by results:
Zeta (mV) [3] [mV],PDI [5],Size [5],Encapsulation Efficiency % [6] [%],SMILES,In vitro Expression RAW (RAW 264.7 cells [1]),In vitro Viability HepG2 (Hep G2 cells [2]) [%],In vivo Expression (Whole Body) (BALB/C mice),In vitro Viability RAW (RAW 264.7 cells [4]) [%],In vitro Expression HepG2 (Hep G2 cells [7])
−2.714,0.112,50.6,94,CCCCC/C=C\C/C=C\CCCCCCCCN(CCCCCCCC(=O)OC(CCCCCCCC)CCCCCCCC)CCCOC(=O)NCCN1CCOCC1 [Lipid 274],4.30E+05,97,2.06E+07,127,4.11E+06
4.217,0.1088,79.97,92,CCCCCCCCCCCOC(=O)CCCCCN(CCCCCCCCOC(=O)C(CCCCCC)CCCCCCCC)CCOC(=O)NCCN1CCCCC1 (stereo not drawn) [Lipid 227],1.99E+05,82,9.21E+07,83,4.71E+05
6.34,0.3136,104.3,87,CCCCCCCCCC(=O)OCCCCCCCN(CCCCCCCCOC(=O)C(CCCCCC)CCCCCCCC)CCCOC(=O)NCCN1CCCC1 (stereo not drawn) [Lipid 357],7.92E+03,120,1.85E+06,8,2.53E+05
−0.4163,0.2572,118.4,92,CCCCCCCCCCC(CCCCCCCC)COC(=O)CCCCCN(CCCCCC(=O)OCC(CCCCCCCC)CCCCCCCCCC)CCCOC(=O)NCCCN(CC)CC (stereo not drawn) [Lipid 366],2.01E+04,84,3.26E+06,99,3.39E+05
−2.69,0.1901,70.01,92,CCCCCCCCC(CCCCCCCC)OC(=O)CCCCCCCN(CCCCCCCCOC(=O)C(CCCCCC)CCCCCCCC)CCCOC(=O)NCc1ncc[nH]1 (stereo not drawn) [Lipid 345],2.20E+05,99,2.49E+06,102,2.57E+06
